What was measured:
HUVEC = assay: Antiinflammatory activity in HUVEC assessed as inhibition of TNFalpha-induced ICAM-1 expression incubated for 2 hrs prior to TNFalpha challenge measured after 16 hrs by ELISA; format: functional, cell-based; conditions: Homo sapiens
[1] = Cytotoxicity against HUVEC assessed as concentration at which viability is > 95 % after 24 hrs by MTT assay; format: cell-based; conditions: human, HUVEC cells; read-out: MTD
[2] = Cytotoxicity against HUVEC assessed as cell viability after 24 hrs by MTT assay relative to control; format: cell-based; design: concentration or dose not given beside the values; conditions: human, HUVEC cells; read-out: Activity

Structure (SMILES)	IC50 (HUVEC)	MNTC at 24 h [1]	viability at 24 h [2]
CCOC(=O)C1ON(c2ccccc2)C(c2ccc(Br)cc2)C12C(=O)Nc1ccccc12 (configuration not stated)	51 µM	203 µM	98%
CCOC(=O)C1ON(c2ccccc2)C(c2ccc(C#N)cc2)C12C(=O)Nc1ccc(F)cc12 (configuration not stated)	48 µM	110 µM	96%
CCOC(=O)C1ON(c2ccccc2)C(c2cccc(Cl)c2)C12C(=O)Nc1ccccc12 (configuration not stated)	25 µM	223 µM	96%
CCOC(=O)C1C(c2cccc(F)c2)N(c2ccccc2)OC12C(=O)Nc1ccccc12 (configuration not stated)	35 µM	116 µM	98%
CCOC(=O)C1ON(c2ccccc2)C(c2cccc(F)c2)C12C(=O)Nc1ccc(F)cc12 (configuration not stated)	66 µM	111 µM	95%
CCOC(=O)C1C(c2cccc(Cl)c2)N(c2ccccc2)OC12C(=O)Nc1ccccc12 (configuration not stated)	35 µM	223 µM	97%
CCOC(=O)C1ON(c2ccccc2)C(c2ccc(Cl)cc2)C12C(=O)Nc1ccccc12 (configuration not stated)	147 µM	223 µM	96%
CCOC(=O)C1C(c2cccc(OC)c2OC)N(c2ccccc2)OC12C(=O)Nc1ccc(F)cc12 (configuration not stated)	27 µM	102 µM	99%
CCOC(=O)C1ON(c2ccccc2)C(c2ccc(N(C)C)cc2)C12C(=O)Nc1ccc(F)cc12 (configuration not stated)	26 µM	110 µM	96%
CCOC(=O)C1C(c2ccc(Br)cc2)N(c2ccccc2)OC12C(=O)Nc1ccccc12 (configuration not stated)	41 µM	203 µM	96%
CCOC(=O)C1ON(c2ccccc2)C(c2ccc([N+](=O)[O-])cc2)C12C(=O)Nc1ccc(F)cc12 (configuration not stated)	32 µM	105 µM	97%
CCOC(=O)C1ON(c2ccccc2)C(c2ccc(OC)cc2)C12C(=O)Nc1ccc(F)cc12 (configuration not stated)	42 µM	108 µM	96%
CCOC(=O)C1ON(c2ccccc2)C(c2ccc(C)cc2)C12C(=O)Nc1ccccc12 (configuration not stated)	52 µM	234 µM	99%
CCOC(=O)C1C(c2cccc([N+](=O)[O-])c2)N(c2ccccc2)OC12C(=O)Nc1ccccc12 (configuration not stated)	45 µM	218 µM	98%
CCOC(=O)C1ON(c2ccccc2)C(c2cccc(F)c2)C12C(=O)Nc1ccccc12 (configuration not stated)	> 162 µM	231 µM	98%
CCOC(=O)C1C(c2cccc(C)c2)N(c2ccccc2)OC12C(=O)Nc1ccccc12 (configuration not stated)	57 µM	234 µM	96%
CCOC(=O)C1C(c2ccc(C#N)cc2)N(c2ccccc2)OC12C(=O)Nc1ccc(F)cc12 (configuration not stated)	49 µM	110 µM	98%
CCOC(=O)C1ON(c2ccccc2)C(c2ccc([N+](=O)[O-])cc2)C12C(=O)Nc1ccccc12 (configuration not stated)	> 217 µM	218 µM	97%
CCOC(=O)C1ON(c2ccccc2)C(c2cccc([N+](=O)[O-])c2)C12C(=O)Nc1ccccc12 (configuration not stated)	169 µM	218 µM	96%
